Source: US20020115689A1, “Combination therapy for treating neurodegenerative disease” (priority 1999, published 2002)

Test system: COX-1 and COX-2
Assay: human whole blood assay (Chan, et al., JPET 290:551-560, 1999) for COX-1 and COX-2 inhibition
Format: cell-based
Details: approximate COX-2 selectivity ratio = IC50 for inhibition of COX-1 divided by IC50 for inhibition of COX-2, human whole blood assay
Source text: The ability of a compound to inhibit COX-1 and/or COX-2 may be characterized by reference to a wide variety of assays. […] Moreover, for purposes of this patent application a COX-2 selectivity ratio is defined by the IC50 for the inhibition of COX-1 divided by the IC50 for the inhibition of COX-2 as measured by the Chan, et al., human whole blood assay.

Compound | COX-1/COX-2 ratio of the IC50
Cc1ccc(-c2cc(C(F)(F)F)nn2-c2ccc(S(N)(=O)=O)cc2)cc1 [Celecoxib] | 6.5
Cc1ccc(-c2ncc(Cl)cc2-c2ccc(S(C)(=O)=O)cc2)cn1 [Compound 13, 5-chloro-3-(4-(methylsulfonyl)phenyl)-2-(2-methyl-5-pyridinyl)pyridine] | 80
COc1ccc2c(c1)c(CC(=O)O)c(C)n2C(=O)c1ccc(Cl)cc1 [Indomethacin] | 0.4
Cc1cnc(NC(=O)C2=C(O)c3ccccc3S(=O)(=O)N2C)s1 [Meloxicam] | 2.
CCC(=O)NS(=O)(=O)c1ccc(-c2c(-c3ccccc3)noc2C)cc1 [Pericoxib, N-[[4-(5-methyl-3-phenylisoxazol-4-yl)phenyl]sulfonyl]propanamide] | >100
CS(=O)(=O)c1ccc(C2=C(c3ccccc3)C(=O)OC2)cc1 [Rofecoxib, 3-phenyl-4-(4-(methylsulfonyl)phenyl)-2-(5H)-furanone] | 35.
